Data as given in patent publication US8080519B2, “Compositions and methods for enhanced pharmacological activity of compositions comprising peptide drug substances” (priority 1999, dated 2011).

Legend:
[1] = system: male Wistar rats; test: hot plate test in rats (time to first licking of the posterior foot); assay type: in vivo, rat; settings: for Time to first signal activity after oral administration: morphine, codeine, ibuprofen 10 mg/kg; for Time to first signal activity after oral administration / Time to first signal activity after i.v. administration: CY5M 2.5 mg/kg; for Time to first signal activity after i.v. administration: morphine 1 mg/kg
Experimental: The time to first licking of the posterior foot by the rat is recorded after the rat has been place on a hot plate maintained at an elevated temperature (40° C.). This procedure provides accurate data on central analgesic activities induced by various candidate drugs. Under placebo conditions, the time to first licking of the posterior foot of the test animal varies between 30 and 50 seconds. […] In the experiments reported herein, a standard hot plate test was used to assess analgesia and the time to first licking of the test animal's posterior foot was used as the triggering event for measurement of elapsed time as indicative of the pharmacological effect of the administered drug species.
Seven groups of five male Wistar rats each were randomly assigned to the following treatments: placebo, 1 mg/kg morphine (i.v.), 10 mg/kg morphine (oral), 10 mg/kg codeine (oral), 10 mg/kg ibuprofen (oral), 2.5 mg/kg CY5M (i.v.), and 2.5 mg/kg CY5M (oral). The method was pre-validated with two oral and i.v. administrations of saline placebo and the results were similar to those obtained with placebo in the experiment reported below.

[2] = system: splenocytes; test: T cell proliferation in a skin immunization model (tritiated thymidine incorporation by splenocytes); assay type: in vivo, mice; settings: for Proliferation Index: splenocytes grown 4 days, 2 weeks after skin immunization; for proliferation index, overall comparison: comparison among the tested formulations
Experimental: Model: • 9 week old mice were immunized by application on bare skin of 100·g of Nef(66-97) peptide sequence and modifications thereof in addition to 5·g of choleric toxin and 100·g of oligodeoxynucleotide containing a CpG moiety (Immunology, 2002 104:1-14). 2 weeks later splenocytes were collected and grown over 4 days in the presence of 4 different concentrations of Nef(66-97) peptide (SEQ ID NO:2). The proliferation was measured by incorporating tritiated thymidine.

[3] = cited from earlier work
[4] = cited from earlier work; remark: listed apart in the source

CC(C)Cc1ccc(C(C)C(=O)O)cc1 (stereo not drawn) [Ibuprofen]
Time to first signal activity after oral administration ([1]; oral, 0 h): 53.2 s
Time to first signal activity after oral administration ([1]; oral, 1 h): 55.0 s
Time to first signal activity after oral administration ([1]; oral, 2 h): 70.4 s
Time to first signal activity after oral administration ([1]; oral, 4 h): 66.0 s
Time to first signal activity after oral administration ([1]; oral, 6 h): 54.0 s
Time to first signal activity after oral administration ([1]; oral, 24 h): 44.2 s

CN1CC[C@]23c4c5ccc(O)c4O[C@H]2[C@@H](O)C=C[C@H]3[C@H]1C5 [Morphine]
duration of analgesic effect ([1]; i.v. administration): six
Time to first signal activity after i.v. administration ([1]; i.v., 0 h): 51.8 s
Time to first signal activity after i.v. administration ([1]; i.v., 1 h): 118.8 s
Time to first signal activity after i.v. administration ([1]; i.v., 2 h): 86.6 s
Time to first signal activity after i.v. administration ([1]; i.v., 4 h): 63.2 s
Time to first signal activity after i.v. administration ([1]; i.v., 6 h): 45.6 s
Time to first signal activity after i.v. administration ([1]; i.v., 24 h): 40.0 s
duration of analgesic effect ([1]; oral administration): six
Time to first signal activity after oral administration ([1]; oral, 0 h): 51.8 s
Time to first signal activity after oral administration ([1]; oral, 1 h): 84.8 s
Time to first signal activity after oral administration ([1]; oral, 2 h): 81.2 s
Time to first signal activity after oral administration ([1]; oral, 4 h): 58.8 s
Time to first signal activity after oral administration ([1]; oral, 6 h): 48.8 s
Time to first signal activity after oral administration ([1]; oral, 24 h): 42.0 s

Cinnamoyl-aminooctanoyl-Nef(66-97) G95ψ . . . (CH2—CH2) G96 [CC8]
Proliferation Index ([2]; Conc. of Nef peptide 0.5): 22
Proliferation Index ([2]; Conc. of Nef peptide 5): 20
Proliferation Index ([2]; Conc. of Nef peptide 50): 16
Proliferation Index ([2]; Conc. of Nef peptide .05): 10
proliferation index, overall comparison [2]: best proliferation index

COc1ccc2c3c1O[C@H]1[C@@H](O)C=C[C@H]4[C@@H](C2)N(C)CC[C@@]341 [Codeine]
Time to first signal activity after oral administration ([1]; oral, 0 h): 53.2 s
Time to first signal activity after oral administration ([1]; oral, 1 h): 51.4 s
Time to first signal activity after oral administration ([1]; oral, 2 h): 64.6 s
Time to first signal activity after oral administration ([1]; oral, 4 h): 57.6 s
Time to first signal activity after oral administration ([1]; oral, 6 h): 56.2 s
Time to first signal activity after oral administration ([1]; oral, 24 h): 46.4 s

CCOC(=O)[C@H](CCc1ccccc1)N[C@@H](C)C(=O)N1CCC[C@H]1C(=O)O [Enalapril]
oral absorption [3]: better absorbed orally

NCCCC[C@H](N[C@@H](CCc1ccccc1)C(=O)O)C(=O)N1CCC[C@H]1C(=O)O [Lisinopril]
oral bioavailability [3]: < 25%
Tmax (time to maximum serum levels in vivo) ([3]; oral): more than seven
solubility in water [4]: relatively good solubility in water

Cinnamoyl-aminovaleryl-Nef(66-97) G95ψ . . . (CH2—CH2) G96 [CC5]
Proliferation Index ([2]; Conc. of Nef peptide 0.5): 22
Proliferation Index ([2]; Conc. of Nef peptide 5): 21
Proliferation Index ([2]; Conc. of Nef peptide 50): 20
Proliferation Index ([2]; Conc. of Nef peptide .05): 11
proliferation index, overall comparison [2]: best proliferation index

Nef(66-97)-palmitoyl lysilamide [Lipo]
Proliferation Index ([2]; Conc. of Nef peptide 0.5): 06
Proliferation Index ([2]; Conc. of Nef peptide 5): 08
Proliferation Index ([2]; Conc. of Nef peptide 50): 07
Proliferation Index ([2]; Conc. of Nef peptide .05): 03

C[C@H](N[C@@H](CCc1ccccc1)C(=O)O)C(=O)N1CCC[C@H]1C(=O)O [Enalaprilat]
oral absorption [3]: very poorly absorbed orally

VGFPVTPQVPLRPMTYKAAVDLSHFLKEKGGL [Nef]
Proliferation Index ([2]; Conc. of Nef peptide 0.5): 10
Proliferation Index ([2]; Conc. of Nef peptide 5): 13
Proliferation Index ([2]; Conc. of Nef peptide 50): 10
Proliferation Index ([2]; Conc. of Nef peptide .05): 03

D-Gal(OPiv)4-hydroxyvaleryl-aminooctanoyl-Nef(66-97) • G95ψ . . . (CH2—CH2) G96 [Pivgal]
Proliferation Index ([2]; Conc. of Nef peptide 0.5): 05
Proliferation Index ([2]; Conc. of Nef peptide 5): 08
Proliferation Index ([2]; Conc. of Nef peptide 50): 10
Proliferation Index ([2]; Conc. of Nef peptide .05): 02

cinnamoyl-Met-Enkephalin [CY5M]
duration of analgesic effect ([1]; i.v. administration): ≥ 24 h
Time to first signal activity after i.v. administration ([1]; i.v., 0 h): 51.0 s
Time to first signal activity after i.v. administration ([1]; i.v., 1 h): 57.0 s
Time to first signal activity after i.v. administration ([1]; i.v., 2 h): 114.0 s
Time to first signal activity after i.v. administration ([1]; i.v., 4 h): 88.2 s
Time to first signal activity after i.v. administration ([1]; i.v., 6 h): 106.0 s
Time to first signal activity after i.v. administration ([1]; i.v., 24 h): 86.6 s
effectiveness relative to morphine by the same route (area under the dose response curve) ([1]; i.v., CY5M 2.5 mg/kg vs morphine 1 mg/kg): at least 8 times
duration of analgesic effect ([1]; oral administration): ≥ 24 h
Time to first signal activity after oral administration ([1]; oral, 0 h): 53.6 s
Time to first signal activity after oral administration ([1]; oral, 1 h): 46.2 s
Time to first signal activity after oral administration ([1]; oral, 2 h): 78.8 s
Time to first signal activity after oral administration ([1]; oral, 4 h): 78.2 s
Time to first signal activity after oral administration ([1]; oral, 6 h): 82.6 s
Time to first signal activity after oral administration ([1]; oral, 24 h): 98.8 s
effectiveness relative to morphine by the same route (area under the dose response curve) ([1]; oral, CY5M 2.5 mg/kg vs morphine 10 mg/kg): at least 8 times

Tyr-Gly-Gly-Phe-Met [Met-Enkephalin]
duration of transient effect after i.v. administration ([1]; preliminary study, i.v.): about 15 minutes
analgesic effect after oral administration ([1]; preliminary study, oral, 5 mg/kg dose): unable to demonstrate any effect

Cinnamoyl-Nef(66-97) G95ψ . . . (CH2—CH2) G96 [C0]
Proliferation Index ([2]; Conc. of Nef peptide 0.5): 12
Proliferation Index ([2]; Conc. of Nef peptide 5): 14
Proliferation Index ([2]; Conc. of Nef peptide 50): 12
Proliferation Index ([2]; Conc. of Nef peptide .05): 08
